Consider 27 compounds from patent publication US11066414B2, “Cot modulators and methods of use thereof” (Gilead Sciences, Inc., priority 2015, dated 2021).

One test concerns TNFα. Nature of the test: Cot Monocyte TNFα Cell Based Assay. Conditions: Homo sapiens, Monocyte, read-out: EC50 TNF, LPS-stimulated human monocytes, TNFα.
Take `Cc1scnc1[C@H](Nc1cc(Cl)c2ncc(C#N)c(Nc3ccc(F)c(Cl)c3)c2c1)c1cn(C2CCN(C(C)(C)C)CC2)nn1` [Example 137, (S)-6-(((1-(1-(tert-butyl)piperidin-4-yl)-1H-1,2,3-triazol-4-yl)(5-methylthiazol-4-yl)methyl)amino)-8-chloro-4-((3-chloro-4-fluorophenyl)amino)quinoline-3-carbonitrile]: the EC50 is 235 nM.

On to `N#Cc1cnc2c(Cl)cc(N[C@@H](C3=CCOCC3)c3c[nH]nn3)cc2c1Nc1cnc(F)c(F)c1` [Example 156, (S)-8-chloro-4-((5,6-difluoropyridin-3-yl)amino)-6-(((3,6-dihydro-2H-pyran-4-yl)(1H-1,2,3-triazol-4-yl)methyl)amino)quinoline-3-carbonitrile], for which the concentration for a half-maximal effect (EC50) turned out to be 1190 nM. For the compound `N#Cc1cnc2c(Cl)cc(N[C@H](c3c[nH]nn3)c3cccnc3Cl)cc2c1Nc1cnc(F)c(F)c1` [Example 161, (S)-8-chloro-6-(((2-chloropyridin-3-yl)(1H-1,2,3-triazol-4-yl)methyl)amino)-4-((5,6-difluoropyridin-3-yl)amino)quinoline-3-carbonitrile], the concentration giving a half-maximal response (EC50) worked out at 1670 nM. On the same count and under the same terms, the figure for `N#Cc1cnc2c(Cl)cc(N[C@@H](c3cnc(F)c(F)c3)c3c[nH]nn3)cc2c1Nc1cnc(F)c(F)c1` [Example 163, (S)-8-chloro-6-(((5,6-difluoropyridin-3-yl)(1H-1,2,3-triazol-4-yl)methyl)amino)-4-((5,6-difluoropyridin-3-yl)amino)quinoline-3-carbonitrile] is 4140 nM; for `Cc1nc(Cl)ccc1[C@H](Nc1cc(Cl)c2ncc(C#N)c(Nc3cnc(F)c(F)c3)c2c1)c1c[nH]nn1` [Example 169, (S)-8-chloro-6-(((6-chloro-2-methylpyridin-3-yl)(1H-1,2,3-triazol-4-yl)methyl)amino)-4-((5,6-difluoropyridin-3-yl)amino)quinoline-3-carbonitrile] it is 1220 nM. Still for that read-out and setting: the figure for `Cc1ncsc1[C@H](Nc1cc(Cl)c2ncc(C#N)c(Nc3cnc(F)c(F)c3)c2c1)c1c[nH]nn1` [Example 170, (R)-8-chloro-4-((5,6-difluoropyridin-3-yl)amino)-6-(((4-methylthiazol-5-yl)(1H-1,2,3-triazol-4-yl)methyl)amino)quinoline-3-carbonitrile] is 1260 nM. Same read-out and setting: for `CC[C@@H](Nc1c(C#N)cnc2c(Cl)cc(N[C@@H](c3cccnc3)c3cn([C@@H](C)CF)nn3)cc12)c1ccccc1` [Example 181, 8-chloro-6-(((S)-(1-((S)-1-fluoropropan-2-yl)-1H-1,2,3-triazol-4-yl)(pyridin-3-yl)methyl)amino)-4-(((R)-1-phenylpropyl)amino)quinoline-3-carbonitrile] the value was 92 nM; for `N#Cc1cnc2c(Cl)cc(N[C@@H](c3cccnc3)c3cn(C4COC4)nn3)cc2c1N[C@@H](CCO)c1ccccc1` [Example 182, 8-chloro-4-(((S)-3-hydroxy-1-phenylpropyl)amino)-6-(((S)-(1-(oxetan-3-yl)-1H-1,2,3-triazol-4-yl)(pyridin-3-yl)methyl)amino)quinoline-3-carbonitrile], 1040 nM.

`CC[C@@H](Nc1c(C#N)cnc2c(Cl)cc(N[C@@H](c3cccnc3)c3cn(C4COC4)nn3)cc12)c1ccccc1` [Example 194, 8-chloro-6-(((S)-(1-(oxetan-3-yl)-1H-1,2,3-triazol-4-yl)(pyridin-3-yl)methyl)amino)-4-(((R)-1-phenylpropyl)amino)quinoline-3-carbonitrile]: the EC50 stood at 111 nM. Still for that read-out and setting: for `N#Cc1cnc2c(Cl)cc(N[C@@H](c3cccnc3)c3cn(C4CC4)nn3)cc2c1Nc1cnc(F)c(F)c1` [Example 206, (S)-8-chloro-6-(((1-cyclopropyl-1H-1,2,3-triazol-4-yl)(pyridin-3-yl)methyl)amino)-4-((5,6-difluoropyridin-3-yl)amino)quinoline-3-carbonitrile] the value was 211 nM; for `N#Cc1cnc2c(Cl)cc(N[C@@H](c3cccnc3)c3cn(CC(F)(F)F)nn3)cc2c1Nc1cnc(F)c(F)c1` [Example 209, (S)-8-chloro-4-((5,6-difluoropyridin-3-yl)amino)-6-((pyridin-3-yl(1-(2,2,2-trifluoroethyl)-1H-1,2,3-triazol-4-yl)methyl)amino)quinoline-3-carbonitrile], 941 nM. Same read-out and setting: for `CC[C@@H](Nc1c(C#N)cnc2c(Cl)cc(N[C@@H](c3cccnc3)c3cn(C4CCCC4)nn3)cc12)c1ccccc1` [Example 213, 8-chloro-6-(((S)-(1-cyclopentyl-1H-1,2,3-triazol-4-yl)(pyridin-3-yl)methyl)amino)-4-(((R)-1-phenylpropyl)amino)quinoline-3-carbonitrile] the value was 103 nM; for `Cc1ncsc1[C@H](Nc1cc(Cl)c2ncc(C#N)c(Nc3ccc(Cl)c(Cl)c3F)c2c1)c1cn(C2COC2)nn1` [Example 217, (R)-8-chloro-4-((3,4-dichloro-2-fluorophenyl)amino)-6-(((4-methylthiazol-5-yl)(1-(oxetan-3-yl)-1H-1,2,3-triazol-4-yl)methyl)amino)quinoline-3-carbonitrile], 264 nM. On the same count and under the same terms, for `Cc1ncccc1[C@H](Nc1cc(Cl)c2ncc(C#N)c(Nc3cccc(Cl)c3)c2c1)c1c[nH]nn1` [Example 224, (S)-8-chloro-4-((3-chlorophenyl)amino)-6-(((2-methylpyridin-3-yl)(1H-1,2,3-triazol-4-yl)methyl)amino)-quinoline-3-carbonitrile] the value was 2630 nM; for `Cc1ncccc1[C@H](Nc1cc(Cl)c2ncc(C#N)c(N[C@H](C)c3ccccc3)c2c1)c1c[nH]nn1` [Example 229, 8-chloro-6-(((S)-(2-methylpyridin-3-yl)(1H-1,2,3-triazol-4-yl)methyl)amino)-4-(((R)-1-phenylethyl)amino)quinoline-3-carbonitrile], 1470 nM. On to `Cc1ncccc1[C@H](Nc1cc(Cl)c2ncc(C#N)c(Nc3ccc(Cl)c(Cl)c3F)c2c1)c1cn(C(C)C)nn1` [Example 232, (S)-8-chloro-4-((3,4-dichloro-2-fluorophenyl)amino)-6-(((1-isopropyl-1H-1,2,3-triazol-4-yl)(2-methylpyridin-3-yl)methyl)amino)quinoline-3-carbonitrile], for which the EC50 stood at 346 nM.

As for `Cc1nc(C)c([C@H](Nc2cc(Cl)c3ncc(C#N)c(Nc4ccc(F)c(Cl)c4)c3c2)c2cn(C3CCN(C(C)(C)C)CC3)nn2)s1` [Example 261, (R)-6-(((1-(1-(tert-butyl)piperidin-4-yl)-1H-1,2,3-triazol-4-yl)(2,4-dimethyl-thiazol-5-yl)methyl)amino)-8-chloro-4-((3-chloro-4-fluorophenyl)amino)-quinoline-3-carbonitrile], the EC50 was 344 nM. Consider `Cc1ocnc1[C@H](Nc1cc(Cl)c2ncc(C#N)c(Nc3ccc(F)c(Cl)c3)c2c1)c1cn(C2CCN(C(C)(C)C)CC2)nn1` [Example 263, (S)-6-(((1-(1-(tert-butyl)piperidin-4-yl)-1H-1,2,3-triazol-4-yl)(5-methyloxazol-4-yl)methyl)amino)-8-chloro-4-((3-chloro-4-fluorophenyl)amino)quinoline-3-carbonitrile], for which the concentration giving a half-maximal response (EC50) is 242 nM. The same measure, in the same setting: for `Cc1ncoc1[C@H](Nc1cc(Cl)c2ncc(C#N)c(Nc3ccc(F)c(Cl)c3)c2c1)c1cn(C2CCN(C(C)(C)C)CC2)nn1` [Example 265, (R)-6-(((1-(1-(tert-butyl)piperidin-4-yl)-1H-1,2,3-triazol-4-yl)(4-methyloxazol-5-yl)methyl)amino)-8-chloro-4-((3-chloro-4-fluorophenyl)amino)quinoline-3-carbonitrile] the value was 426 nM; for `Cn1cnc([C@H](Nc2cc(Cl)c3ncc(C#N)c(Nc4ccc(F)c(Cl)c4)c3c2)c2c[nH]nn2)c1` [Example 266, (S)-8-chloro-4-((3-chloro-4-fluorophenyl)amino)-6-(((1-methyl-1H-imidazol-4-yl)(1H-1,2,3-triazol-4-yl)methyl)amino)-quinoline-3-carbonitrile], 28800 nM.

As to `Cn1ccc([C@H](Nc2cc(Cl)c3ncc(C#N)c(Nc4ccc(F)c(Cl)c4)c3c2)c2cn(C3CCN(C(C)(C)C)CC3)nn2)n1` [Example 268, (R)-6-(((1-(1-(tert-butyl)piperidin-4-yl)-1H-1,2,3-triazol-4-yl)(1-methyl-1H-pyrazol-3-yl)methyl)amino)-8-chloro-4-((3-chloro-4-fluorophenyl)-amino)quinoline-3-carbonitrile], the EC50 was determined as 234 nM. Same read-out and setting: for `Cc1ncccc1[C@H](Nc1cc(Cl)c2ncc(C#N)c(Nc3ccc(F)c(Cl)c3)c2c1)c1c[nH]nn1` [Example 272, (S)-8-chloro-4-((3-chloro-4-fluorophenyl)amino)-6-(((2-methylpyridin-3-yl)(1H-1,2,3-triazol-4-yl)methyl)amino)quinoline-3-carbonitrile] the value was 297 nM; for `Cc1ncccc1[C@H](Nc1cc(Cl)c2ncc(C#N)c(Nc3ccc(F)c(Cl)c3)c2c1)c1cn(COC(=O)C(C)(C)C)nn1` [Example 274, (S)-(4-(((8-chloro-4-((3-chloro-4-fluorophenyl)amino)-3-cyanoquinolin-6-yl)amino)(2-methylpyridin-3-yl)methyl)-1H-1,2,3-triazol-1-yl)methyl pivalate], 370 nM; for `Cc1ccc([C@H](Nc2cc(Cl)c3ncc(C#N)c(Nc4ccc(F)c(Cl)c4)c3c2)c2cn(C(C)C)nn2)cn1` [Example 280, (S)-8-chloro-4-((3-chloro-4-fluorophenyl)amino)-6-(((1-isopropyl-1H-1,2,3-triazol-4-yl)(6-methylpyridin-3-yl)methyl)amino)quinoline-3-carbonitrile], 811 nM.

Still in this test, the particulars now being: read-out: EC50 TNF; LPS-stimulated human monocytes, TNFα.
Consider `CC(C)(C)N1CCC(n2cc([C@@H](Nc3cc(Cl)c4ncc(C#N)c(Nc5cnc(F)c(F)c5)c4c3)c3cccnc3)nn2)CC1` [Example 208], for which the EC50 came out at 465 nM. For `Cc1ncccc1[C@H](Nc1cc(Cl)c2ncc(C#N)c(N[C@H](C)c3ccccc3)c2c1)c1cn(C2CCN(C(C)(C)C)CC2)nn1` [Example 231], the concentration for a half-maximal effect (EC50) was found to be 230 nM. On the same count and under the same terms, the figure for `Cc1cncc([C@H](Nc2cc(Cl)c3ncc(C#N)c(Nc4ccc(F)c(Cl)c4)c3c2)c2c[nH]nn2)c1` [Example 249, (S)-8-chloro-4--((3-chloro-4-fluorophenyl)amino)-6-(((5-methylpyridin-3-yl)(1H-1,2,3-triazol-4-yl)methyl)amino)quinoline-3-carbonitrile] is 332 nM.

In general, EC50 refers to the concentration at which the effect is half-maximal.
